Source: patent publication US20100004244A1, “USE OF CB2 RECEPTOR AGONISTS FOR PROMOTING NEUROGENESIS” (priority 2006, published 2010)

Legend:
[1] = tested on: neural progenitors; assay: Neurosphere generation and self-renewal of neural progenitors; format: cell-based, mouse; details: for neurosphere generation in CB2-deficient neural progenitors / primary neurosphere generation / neural progenitor self-renewal: 30 nM; for primary neurosphere generation: wild-type E17.5 progenitors, 7 days; for neural progenitor self-renewal: wild-type progenitors, 5 consecutive passages, FIG. 3C
Procedure: Multipotent self-renewing progenitors were obtained from the dissected cortices of mice at the indicated developmental stages and grown in chemically-defined medium constituted by Dulbecco's modified Eagle's and F12 media supplemented with N2 (Invitrogen), 0.6% glucose, non-essential amino acids, 50 mM Hepes, 2 μg/ml heparin, 20 ng/ml epidermal growth factor and 20 ng/ml basic fibroblast growth factor [Aguado, T. et al., J. Neurosci. 26, 1551-61, 2006]. Clonal neurospheres were cultured at 1000 cells/ml, dissociated with accutase (Sigma-Aldrich, Missouri, USA) and experiments were carried out with early (up to 10) passage neurospheres. Neurosphere generation experiments were performed in 96-well dishes with 100 μl of medium, and the number of neurospheres was quantified at predetermined time points by phase-contrast microscopy. Embryonic neural progenitors from wild-type and CB2-deficient mice were cultured (10,000 cells/ml) in the continuous presence of cannabinoids or controls for the indicated number of passages (one passage every 4 days).
Adult neural progenitors were obtained from hippocampi of 4-month-old adult mice and cultured as described above. Neural progenitor cell differentiation was performed as described.

[2] = tested on: neural progenitors; assay: BrdU cell proliferation assay in dissociated neurospheres; format: cell-based, mouse; details: for number of BrdU-incorporating cells: 30 nM, 16 hours, FIG. 3D; for effect on HU-308 induction of cell proliferation: PD98059 10 μM, LY294,002 5 μM, with HU-308 30 nM, FIG. 3E, confirmed in neurosphere generation assays
Procedure: These studies involve the use of bromodeoxyuridine (BrdU), a thymidine analog incorporated into DNA during the S phase of the cell cycle, which allows visualizing cell proliferation. Neural progenitor proliferation was determined by quantifying BrdU-positive cells 16 hours after incubation with 10 μg/ml BrdU, followed by immunostaining [Aguado, T. et al., FASEB J. 19, 1704-6, 2005].
Results are expressed as percentage of BrdU-positive cells over total cells.

[3] = tested on: ERK and Akt; assay: ERK and Akt phosphorylation in neural progenitors (Western blot); format: cell-based, mouse; details: FIG. 3F
Procedure: Identical protein amounts of cleared cell extracts were subjected to SDS-PAGE, transferred to PVDF membranes, and following antibody incubations developed with enhanced chemiluminiscence detection kit [Aguado, T. et al., FASEB J. 19, 1704-6, 2005]. Loading controls were performed with an anti-α-tubulin antibody.

[4] = tested on: neural progenitor cell proliferation in the dentate gyrus; assay: In vivo hippocampal neural progenitor proliferation (BrdU-positive cells in dentate gyrus); set-up: species or system mouse; details: FIG. 4B; for hippocampal progenitor proliferation in vivo: wild-type adult mice, i.p. 5 consecutive days, HU-308 15 mg/kg, SR144528 1 mg/kg
Procedure: Adult CB2 receptor knock-out male mice (8-week old) and their respective wild-type littermates were injected i.p. with 50 mg/kg BrdU daily for 3 days, and perfused 1 day later. […] Control animals received the corresponding vehicle injection (100 μl PBS supplemented with 0.5 mg defatted bovine serum albumin and 4% dimethylsulfoxide). BrdU was administered daily during the pharmacological administration period. In the case of experiments on kainate-induced excitotoxicity, animals were injected with 15 mg/kg kainate or vehicle. E17.5 mouse embryos from mothers injected twice with 100 mg/kg BrdU (30-min interval between injections) were obtained 1 h after the first injection.
At the end of the study, animals were euthanized and their brains were fixed into 4% paraformaldehyde in PBS until further analysis.
Mice were perfused and immunostaining was performed in 30-μm brain coronal free-floating sections [Rueda, D. et al., J. Biol. Chem. 277, 4645-50, 2002]. Sections were incubated with polyclonal anti-CB2 antibody together with anti-nestin, anti-Neu, or anti-GFAP antibodies followed by secondary staining for rabbit and mouse IgGs with highly cross-adsorbed AlexaFluor 594 and AlexaFluor 488 secondary antibodies (Molecular Probes), respectively. Neural progenitor proliferation was determined with anti-BrdU antibody and secondary anti-rat IgG-AlexaFluor 594 in sections counterstained with TOTO-3 iodide. Preparations were examined using Leica software and SP2 AOBS microscope with 2 passes with a Kalman filter and a 1024×1024 collection box. BrdU^+ cells were counted in the subgranular zone and granule cell layer of the dentate gyrus. A 1-in-6 series of adult hippocampal mouse sections located between 1.3 and 2.1 mm posterior to bregma were employed. […] Frozen mouse embryo sections were incubated with anti-BrdU antibody together with Yoyo-1 iodide, and positive cells were determined in 7 sections per animal.
Results are expressed as number of BrdU positive cells per section in the dentate gyrus of the animals.

[5] = target: human CB1 receptors (Homo sapiens, UniProt P21554); details: read-out: IC50 for binding to human CB1 receptors; as disclosed in WO 03/064359; cited from earlier work
[6] = tested on: substantia nigra; details: mice treated with the neurotoxin MPTP; cited from earlier work
[7] = tested on: basal ganglia; details: cited from earlier work
[8] = tested on: embryonic hippocampal neural progenitor cells; details: Jiang et al. 2005; cited from earlier work
[9] = tested on: newborn neurons; details: chronic administration, Jiang et al. 2005; cited from earlier work
[10] = tested on: cannabinoid receptors; details: cited from earlier work

Sequence of human CB1 receptors (P21554 whole entry): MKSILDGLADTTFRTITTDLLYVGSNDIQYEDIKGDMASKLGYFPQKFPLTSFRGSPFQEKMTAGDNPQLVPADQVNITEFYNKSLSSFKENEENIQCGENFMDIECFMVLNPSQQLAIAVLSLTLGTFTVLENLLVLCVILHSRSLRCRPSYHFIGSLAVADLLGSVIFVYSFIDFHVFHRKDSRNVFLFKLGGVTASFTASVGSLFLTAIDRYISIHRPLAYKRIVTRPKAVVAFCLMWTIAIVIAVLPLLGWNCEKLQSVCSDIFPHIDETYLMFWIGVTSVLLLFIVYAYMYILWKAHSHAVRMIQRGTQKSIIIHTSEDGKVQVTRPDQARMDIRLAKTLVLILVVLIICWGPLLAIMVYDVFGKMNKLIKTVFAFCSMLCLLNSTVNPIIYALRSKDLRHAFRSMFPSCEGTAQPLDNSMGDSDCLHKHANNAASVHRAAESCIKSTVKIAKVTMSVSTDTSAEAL

## CCCCCCC(C)(C)c1cc(OC)c(C2C=C(CO)C3CC2C3(C)C)c(OC)c1 (single isomer, unassigned; (+)) [HU-308, (+) {4-[4-(1,1-dimethylheptyl)-2,6-dimethoxyphenyl]-6,6-dimethyl-bicyclo[3.1.1]hept-2-en-2-yl}-methanol]
[1]; FIG. 3B
  neurosphere generation in CB2-deficient neural progenitors: neither HU-308 nor JWH-133 was able to enhance neurosphere generation
  primary neurosphere generation: increased
[1]
  neural progenitor self-renewal: increased
[2]
  number of BrdU-incorporating cells: increased the number of BrdU-incorporating cells in a CB2-dependent manner
[3]; 15 min (ERK) or 2 min (Akt)
  ERK and Akt phosphorylation: stimulated ERK and Akt
[4]; CB2-/- adult mice, 15 mg/kg i.p. 5 days
  hippocampal progenitor proliferation in CB2-deficient mice: lack of HU-308 agonistic effect
[4]
  hippocampal progenitor proliferation in vivo: increased progenitor proliferation
[5]
  IC50: 3.6 µM
[6]
  extent of cell death in the substantia nigra: reduces the extent of cell death
[7]; non-lesioned side
  GABA level and dopamine transmission in the non-lesioned side: did not alter the parameters monitored
[7]; rats, intrastriatal injection of malonate
  extent of cell death in the basal ganglia: reduces the extent of cell death

## CCCCCCC(C)(C)c1cc(O)c2c(c1)OC(C)(C)[C@@H]1CC=C(CO)C[C@@H]21 [HU-210, 7-hydroxy-Δ^6-tetrahydrocannabinol-1,1-dimethyl-heptyl]
[8]
  proliferation and differentiation of embryonic hippocampal neural progenitor cells: promotes proliferation of said embryonic cells without affecting their differentiation
[9]
  measures of anxiety- and depression-like behavior: reduced measures of anxiety- and depression-like behavior
  number of newborn neurons: increased the number of newborn neurons

## CCCCCCC(C)(C)c1cc(O)c2c(c1)OC(C)(C)[C@@H]1CC=C(CO)C[C@@H]21 [HU-211, 7-hydroxy-Δ^6-tetrahydrocannabinol-1,1-dimethyl-heptyl]
[10]
  affinity to the cannabinoid receptors: low affinity

## CCCC(C)(C)c1ccc2c(c1)OC(C)(C)[C@@H]1CC=C(C)C[C@@H]21 [JWH-133]
[1]; FIG. 3B
  neurosphere generation in CB2-deficient neural progenitors: neither HU-308 nor JWH-133 was able to enhance neurosphere generation
  primary neurosphere generation: increased
[1]; adult progenitors
  percentage of neurosphere number relative to vehicle incubations: 149±6%
[1]; postnatal progenitors
  percentage of neurosphere number relative to vehicle incubations: 154±22%
[1]
  neural progenitor self-renewal: increased
[2]
  number of BrdU-incorporating cells: increased the number of BrdU-incorporating cells in a CB2-dependent manner

## O=c1cc(N2CCOCC2)oc2c(-c3ccccc3)cccc12 [LY294,002]
[2]
  effect on HU-308 induction of cell proliferation: prevented by both inhibitors

## COc1cccc(-c2cc(=O)c3ccccc3o2)c1N [PD98059]
[2]
  effect on HU-308 induction of cell proliferation: prevented by both inhibitors

## SR144528
[1]; 2 μM with HU-308 or JWH-133 30 nM, FIG. 3B, 3C
  effect on agonist-increased primary neurosphere generation and self-renewal: both actions were prevented
[1]; data not shown
  effect on agonist-increased neurosphere generation in postnatal and adult progenitors: this action was prevented
[3]
  effect on HU-308 stimulation of ERK and Akt: this action was prevented
[4]
  hippocampal progenitor proliferation in vivo: exerted the opposite action
